Key:
Escherichia coli = experiment: Inhibition of the growth of Escherichia coli; format: cell-based; conditions: 0.1625-10 μM, 18 hours, 37° C.
Protocol: A single E. coli colony was used to inoculate 5 ml of Luria-Bertani media and grown overnight at 37° C. The following day, the optical density of the culture was measured and the E. coli diluted to an optical density at 600 nm (OD600) of 0.01 in Mueller-Hinton Broth. Diluted E. coli were added to 96-well plates with defensins at concentrations of 10 μM, 5 μM, 2.5 μM, 1.25 μM, 0.625 μM, 0.3125 μM or 0.1625 μM. Plates were read at OD595 to obtain time zero data points. Plates were incubated at 37° C. for 18 hours before reading again at OD595 to assess the amount of E. coli growth.

[1] = tested on: Trichophyton rubrum, T. interdigitale, Microsporum fulvum and C. albicans; experiment: Inhibition assays summarised across the range of fungal pathogens; format: cell-based; conditions: summary of Table 3
Protocol: The inhibitory effects of the plant defensins on the growth of Trichophyton rubrum, T. interdigitale, Microsporum fulvum and C. albicans (obtained from the National Mycology Reference Centre, South Australia Pathology at the Women's and Children's Hospital, Adelaide, Australia) are measured essentially as described by Broekaert et al. (1990) FEMS Microbiol Lett 69:55-59. Spores of T. rubrum, T. interdigitale and M. fulvum are isolated from sporulating fungus growing on 1⁄2 strength Sabouraud dextrose agar (SDA). Spores were removed from the plates by the addition of 1⁄2 strength potato dextrose broth (PDB). C. albicans cells are grown in Yeast Peptone Broth (YPD) for 16 h. Spore and cell concentrations are measured using a hemocytometer. Antifungal assays are conducted in 96 well microtitre plates essentially as herein described. Wells are loaded with 20 μL of filter sterilized (0.22 μm syringe filter, Millipore) defensin (10× stock for each final concentration) or water and 80 μL of 5×10^4 spores/mL (T. rubrum, T, interdigitale, M. fulvum) or 5,000 cells/mL (C. albicans) in 1⁄2 strength PDB. The plates are incubated at 30° C. Fungal growth is assayed by measuring optical density at 595 nm ([…]) using a microtitre plate reader (SpectraMax Pro M2; Molecular Devices. Growth is allowed to proceed until the optical density (OD) of the fungus in the absence of any test defensin reached an OD of 0.2. Each test is performed in duplicate.

Trichophyton rubrum = experiment: Inhibition of growth of Trichophyton rubrum over 28 days, daily dosing; format: cell-based
Protocol: The inhibitory effect of HXL008 on the growth of Trichophyton rubrum (obtained from the National Mycology Reference Centre, South Australia Pathology at the Women's and Children's Hospital, Adelaide, Australia) was monitored over 28 days.
Spores of T. rubrum, are isolated from sporulating fungus growing on ½ strength Sabouraud dextrose agar. Spores are removed from the plates by the addition of ½ strength potato dextrose broth (PDB). Spore and cell concentrations are measured using a hemocytometer.
Spores were diluted to a concentration of 5×10^4 spores/mL in ½ PBD (2 mL) containing 0, 10 or 50 μg/mL HXL008. Cultures are incubated at 30 C without shaking. After 24 h, 100 μL of each culture is extracted and plated onto ½ SDA plates. An additional 100 uL of ½ PDB is then added containing either 0, 20 or 100 μg of HXL008. SDA plates are then incubated at 30 C for 5 days. This process is repeated every 24 h for 28 days. After 15 days, the culture containing no HXL008 becomes too thick to pipette and is no longer used in the assay.

[2] = format: in vitro ADME, Human
Protocol: Penetration of NaD1 through human nails was measured according to the method of Hui et al. (2002) J Pharm Sci 91(1):189-195. Human toenails were obtained from ScienceCare (USA) and washed with phosphate buffered saline (details, PBS) before being placed on a kimwipe that had been soaked in PBS for 3 h to rehydrate the nail. The nail was then placed in a plastic nail adapter with a dosing area of 0.5×0.5 cm (Permagear, USA) and a cotton bud wetted with 75 microlitres of PBS was placed in the receptor chamber in contact with the underside of the nail.
The cotton bud in contact with the underside of the nail was removed after 24 h and every 24 h following. Protein that had passed through the nail was recovered from the cotton bud by washing twice with 500 μL of 0.1% v/v trifluoroacetic acid. Recovered protein was quantified using RP-HPLC.

[3] = tested on: Human monocytic lymphoma (U937) cells; format: cell-based
Protocol: Human monocytic lymphoma (U937) cells are cultured in RPMI-1640 medium. All culture media are supplemented with 5-10% v/v fetal calf serum, 100 U/ml of penicillin, and 100 μg/ml of streptomycin. Cell lines are cultured at 37° C. in a humidified atmosphere containing 5% v/v CO2. Adherent cell lines are detached from the flask by adding a mixture containing 0.25% v/v trypsin and […]. A flow cytometry-based propidium iodide (PI) uptake assay is performed to analyze the ability of plant defensins to permeabilize U937 cells (essentially as described in Poon et al, 2014). Briefly, cells are suspended to 1×10^6 cells/ml in 0.1% v/v BSA/RPMI-1640 and incubated with plant defensins (10 μM) at 37° C. for 30 min. Samples are added to PBS containing a final concentration of 1 μg/ml PI and placed on ice. Samples are then analyzed immediately using the BD FACSCanto II Flow Cytometer and BD FACSDiva software v6.1.1. The resultant flow cytometry data is analyzed using FlowJo software v8.8.6. Cells are gated appropriately based on forward scatter and side scatter and cell permeabilization is defined by PI-positive staining.

[4] = tested on: clinical isolates of T. rubrum; experiment: Cell survival assay, clinical isolates of T. rubrum plated after 72 h with HXL008; format: cell-based, Trichophyton rubrum; conditions: 72 h with HXL008 (100 g/mL, 100 μM elsewhere in the source), 5 days at 30° C.
Protocol: FIGS. 3(a) through (e) are photographic representations of surviving colonies of T. rubrum grown on agar plates after treatment with 100 μM HXL008 for 72 h. Panels (a) to (d) represent clinical isolates 14-01, 14-02, 14-03 and 13-04, respectively. Surviving colonies are marked with a black rectangle. Panel (e) represents the growth of T. rubrum that has not been treated with HXL008.
After incubation for 72 h, the media from wells containing clinical isolates of T. rubrum incubated with 100 […] HXL008 was plated onto fresh Sabouraud dextrose agar. Plates were incubated at 30° C. for 5 days to allow colonies to develop before being photographed.

Substance: HXL008: Class I plant defensin from Picramnia pentandra, SEQ ID NO: 1 (KVCTKPSKFFKGLCGTDGACTTACRKEGLHSGYCQLKGFLNSVCVCRKHC; HXL008 Picramnia pentandra)
- Growth of E. coli in the presence of defensin (Escherichia coli): did not inhibit growth of E. coli at the concentrations tested
- Antifungal activity across the range of fungal pathogens, result in words [1]: most effective plant defensins across the range of fungal pathogens
- Visible growth of T. rubrum in culture (Trichophyton rubrum; 10 μg/mL or 50 μg/mL, over the duration of the assay (28 days)): did not display any visible growth
- T. rubrum cells killed (Trichophyton rubrum; HXL008 50 μg/mL, within 24 h): more than 80%
- Surviving colonies per plate (Trichophyton rubrum; after 20 days of treatment, 100 μL plated): 0 or only 1
- Nail penetration, result in words [2]: able to penetrate nails faster and more effectively than the active ingredients of current topical onychomycosis therapies
- U937 cells permeabilized (PI-positive) [3]: less than 2%
- Surviving colonies on agar plates after incubation with HXL008 [4]: 1-3 colonies

Reference: patent publication US11446354B2, “Method of treatment” (Hexima Limited, priority 2014, dated 2022)
